Where two headings read alike, the source gives them in different places.
Columns and labels:
[1] = test system: rat SERT expressed by RBL-2H3 cells; experiment: [3H]5-HT transport assay in RBL-2H3 cells; type: cell-based
hSERT Pro339Leu (P339L) = hSERT Pro339Leu (P339L) (Homo sapiens, UniProt P31645, P339L)
Procedure: (§1) Transfection and Transport Studies. HeLa cells, maintained at 37° C. in a 5% CO2 humidified incubator, were grown in complete medium (Dulbecco's Modified Eagle's Medium (DMEM, Invitrogen), 10% fetal bovine serum, 2 mM L-glutamine, 100 units/ml penicillin, and 100 μg/ml streptomycin).
(§2) Transport, Binding, Biotinylation and Phosphorylation Studies. […] To establish levels and biosynthetic progression of hSERT protein produced from mutant cDNAs, HeLa cells were plated in 6-well dishes at 500,000 cells per well and transfected 12 h later. Twenty four hours after transfection, whole cell detergent extracts were blotted for hSERT (mAb Technologies, Inc., 1:1000) using enhanced chemiluminescence (ECL, Amersham) detection.

hSERT = biological target: T1, hSERT (Homo sapiens, UniProt P31645); experiment: [3H]5-HT transport (SERT uptake) assay in transfected HeLa cells; type: cell-based
T1 construct: The full-length cDNA encoding hSERT in the mammalian expression vector pcDNA3.1; expressed in transfected cells; host or cells: HeLa
Procedure: as §1, §2

hSERT Ile425Val (I425V) = biological target: T2, hSERT Ile425Val (I425V) (Homo sapiens, UniProt P31645, I425V); experiment: as above; type: cell-based
T2 construct: The full-length cDNA encoding hSERT in the mammalian expression vector pcDNA3.1; expressed in transfected cells; host or cells: HeLa
Procedure: as §1, §2

[2] = biological target: T3, native SERT in RN46A cells (Rattus norvegicus, UniProt P31652); experiment: [3H]5-HT transport assay in RN46A cells; type: cell-based
T3 construct: derived from rat E13 raphenucleus, that expresses native SERT; endogenous in cells; host or cells: RN46A cells
T3 sequence (P31652 whole entry): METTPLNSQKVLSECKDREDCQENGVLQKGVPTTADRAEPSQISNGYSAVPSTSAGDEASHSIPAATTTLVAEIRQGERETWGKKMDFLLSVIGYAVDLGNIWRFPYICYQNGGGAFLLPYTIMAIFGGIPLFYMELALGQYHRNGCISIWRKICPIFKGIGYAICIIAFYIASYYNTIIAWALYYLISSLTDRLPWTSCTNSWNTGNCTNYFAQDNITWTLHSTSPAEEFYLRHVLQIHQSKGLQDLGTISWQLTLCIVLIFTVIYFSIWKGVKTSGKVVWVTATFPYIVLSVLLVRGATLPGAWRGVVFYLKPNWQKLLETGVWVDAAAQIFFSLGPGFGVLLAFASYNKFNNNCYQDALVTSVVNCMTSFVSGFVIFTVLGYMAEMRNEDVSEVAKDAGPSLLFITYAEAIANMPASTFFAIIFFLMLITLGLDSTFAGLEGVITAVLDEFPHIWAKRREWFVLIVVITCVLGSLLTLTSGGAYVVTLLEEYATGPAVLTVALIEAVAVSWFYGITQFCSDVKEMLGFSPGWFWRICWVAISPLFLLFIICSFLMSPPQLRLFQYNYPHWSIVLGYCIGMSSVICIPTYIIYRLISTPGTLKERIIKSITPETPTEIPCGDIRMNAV

SERT in RBL-2H3 cells = biological target: T4, SERT in RBL-2H3 cells (Rattus norvegicus, UniProt P31652); experiment: [125I]RTI-55 binding to intact RBL-2H3 cells; type: cell-based; conditions: for SERT surface density (5-HT-displaceable [125I]RTI-55 binding): anisomycin 1 μm, fostriecin 5 nM, NECA 1 μm, 10 min
T4 construct: As with rat SERT expressed by RBL-2H3 cells; host or cells: RBL-2H3 cells (intact cells, 4° C.)
T4 sequence (P31652 whole entry): as above
From the text: Binding was terminated by two rapid washes with ice-cold PBS/CM.

p38 MAPK = type: cell-based, rat
Procedure: Assays of p38 MAPK Activation. […] Medium was removed by aspiration, and cells were washed once with KRH buffer and then incubated in triplicate at 37° C. in KRH buffer with or without p38 MAPK activators for 5-10 min. Assay buffer was removed, and cells were immediately fixed with fresh 4% formaldehyde (Sigma) in PBS for 20 min at room temperature and washed four times with 1×PBS containing 0.1% Triton X-100 (Sigma) (5 min per wash) prior to 1 h of blocking with Odyssey blocking buffer (Li-Cor Biosciences, Lincoln, Nebr.). RBL-2H3 cells were subsequently probed with dual phosphorylated (Thr(P) and Tyr(P)) p38 MAPK polyclonal antibody (Cell Signaling; 1:400) in Odyssey blocking buffer with gentle mixing for 2 h at room temperature. Cells were then washed four times with 1×PBS containing 0.1% Tween 20 (Sigma) for 5 min. Bound antibody was detected with fluorescence-labeled secondary antibody-Alexa Fluor® 680 (avoiding exposure to light; 1:200 in Odyssey Blocking Buffer, Molecular Probes, Inc., Eugene, Oreg.) for 1 h. After four washes with 1×PBS, 0.1% Tween 20, the plate was scanned, and the captured image of the signal was processed and quantified with the Odyssey™ Infrared Imaging System (Li-Cor Biosciences). For UV radiation to activate p38 MAPK, plates seeded with cells were placed in a UV source (UV Stratalinker 1800, Stratagene, La Jolla, Calif.) that was preset to deliver 4×10^4 μJ/cm^2 at room temperature.

`NCCc1c[nH]c2ccc(O)cc12` [5-HT, 5-hydroxytryptamine] was tested, and the Km ([1]; read-out: SERT Km for 5-HT, RBL-2H3, vehicle) was 1.06 ± 0.145 µM, the “5-HT Vmax” value (hSERT Pro339Leu (P339L)) was 3.0+/−1.2 % of hSERT and the “5-HT Vmax” value (hSERT Pro339Leu (P339L); saturation kinetics) was 1.2 ± 0.11 fmol/well/min. For the same compound, the “5-HT Vmax” value (hSERT; saturation kinetics, hSERT) was 416.2+19 fmol/well/min, the “5-HT Vmax” value (hSERT Ile425Val (I425V)) was 190+/−28 % of hSERT and the “5-HT Vmax” value (hSERT Ile425Val (I425V); saturation kinetics) was 789.5+28 fmol/well/min. For the same compound, the Km ([2]; read-out: SERT Km for 5-HT, RN46A, vehicle) was 0.799 ± 0.097 µM.
For `OO` [H2O2, hydrogen peroxide], the “stimulation of 5-HT transport activity” value [1] was “stimulated 5-HT transport to a level comparable with 1 μm anisomycin”.
With `C[N+](C)(C)CCSS(C)(=O)=O` [MTSET, [2-(Trimethylammonium)ethyl]methanethiosulfonate] the “blockade of anisomycin-stimulated 5-HT uptake / SERT activity” value [1] was “abolished”.
With `CCNC(=O)[C@H]1O[C@@H](n2cnc3c(N)ncnc32)[C@H](O)[C@@H]1O` [NECA] the “total SERT (paroxetine-displaceable [125I]RTI-55 binding)” value (SERT in RBL-2H3 cells; acute treatment) was “does not change”, the “SERT surface density (5-HT-displaceable [125I]RTI-55 binding)” value (SERT in RBL-2H3 cells) was “significant increase” and the “level of p38 MAPK phosphorylation stimulation” value (p38 MAPK; 5 min treatment) was “comparable to stimulation achieved with 8-bromo-cGMP”. For the same compound, the “total p38 MAPK levels” value (p38 MAPK; data not shown) was “No changes”.
In the case of `COc1cccc(-c2cc(=O)c3ccccc3o2)c1N` [PD98059], the “blockade of anisomycin-stimulated 5-HT uptake / SERT activity” value [1] is reported as “failed to block”.
In the case of `Oc1ccc(-c2nc(-c3ccc(F)cc3)c(-c3ccncc3)[nH]2)cc1` [SB202190], the “blockade of anisomycin-stimulated 5-HT uptake / SERT activity” value [1] is reported as “blocked anisomycin stimulation of SERT”.
With `CCc1nc(-c2ccc(OC)cc2)[nH]c1-c1ccncc1` [SB202474] the “blockade of anisomycin-stimulated 5-HT uptake / SERT activity” value [1] was “lacked antagonistic activity”.
`COC[C@@H]([C@H](O)[C@H](O)C(=O)NCC[C@H](C)c1nc(/C=C/C[C@@H]2O[C@]3(C[C@@H](O)[C@@H]2C)O[C@H]([C@H](C[C@H](O)[C@H](C)[C@H](O)[C@H](C)/C=C(C)/C(C)=C/C=C/C(C)=C\C#N)OC)[C@H](OP(=O)(O)O)C3(C)C)co1)N(C)C` [calyculin A] was tested, and the “basal 5-HT uptake” value ([1]; calyculin A 20 nM) was “fails to diminish”, the “blockade of anisomycin stimulation of SERT” value ([1]; calyculin A 20 nM, 15 min preincubation) was “completely blocks” and the “5-HT uptake at higher concentrations” value ([1]; calyculin A 100 nM, fostriecin higher concentrations) was “inhibits both basal and anisomycin-stimulated 5-HT uptake”.
With `COc1cc(/C=C/C(=O)CC(=O)/C=C/c2ccc(O)c(OC)c2)ccc1O` [curcumin] the “blockade of anisomycin-stimulated 5-HT uptake / SERT activity” value [1] was “lacked antagonistic activity”.
`C[C@@](O)(/C=C/[C@H]1CC=CC(=O)O1)[C@@H](C[C@@H](O)\C=C/C=C\C=C\CO)OP(=O)(O)O` [fostriecin] was tested, and the “5-HT uptake at higher concentrations” value [1] was “inhibit basal 5-HT uptake”, the “blockade of anisomycin-stimulated 5-HT uptake / SERT activity” value [1] was “completely blocks” and the “SERT surface density (5-HT-displaceable [125I]RTI-55 binding)” value (SERT in RBL-2H3 cells) was “did not impact the binding”. The “blockade of NECA-induced enhancement of SERT surface density” value (SERT in RBL-2H3 cells; concentration that completely blocks anisomycin stimulation) was “fails to block”.
In the case of YGRKKRRQRRRPP-LRK5H-amide [DT-2], the “blockade of NECA-induced 5-HT uptake” value ([1]; ODQ 10 μm, H8 0.1 μm, DT-2 1.0 μm, NECA 1 μm) is reported as “abolish”, the “blockade of 8-Br-cGMP stimulation of SERT” value ([1]; data not shown) is reported as “blocked” and the “blockade of anisomycin-stimulated 5-HT uptake / SERT activity” value ([1]; pretreatment, then anisomycin 1 μm 10 min, SB compounds, curcumin, PD98059, ODQ 10 μm, H8 0.1 μm, DT-2 1.0 μm, fostriecin 5 nM, MTSET 10 mM, siRNA 100 nM 48 h) is reported as “failed to attenuate”. The “sensitivity of 8-bromo-cGMP-induced 5-HT transport to PKG antagonist” value ([2]; DT-2 1.0 μm) was “sensitive” and the “blockade of anisomycin-stimulated 5-HT uptake” value ([2]; RN46A, SB203580, ODQ 10 μm, H8 0.1 μm, DT-2 1.0 μm) was “failed to attenuate”.
For bisindolylmaleimide [BIM], the “blockade of β-PMA downregulation” value (hSERT; BIM 1 μM) was “blocked”.
